The values below come from patent US20240391882A1 (Mirati Therapeutics, Inc., priority 2023, published 2024).

Format in all cases: cell-based
In test [1] the test system is pAKT in T47D (PI3Kα H1047R mutant) cells. Nature of the test: Inhibition of pAKT (alphaLISA Surefire Ultra AKT 1/2/3 pS473) in T47D cells. The settings on record: Homo sapiens; T47D (PI3Kα H1047R mutant) cells, 24 hr compound incubation, alphaLISA pS473; read-out: T47D (H1047R) pAKT 24 hr (IC50). The method in brief: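 Cells in HBSS were dosed from 10.4 μm (1:4 serial dilution, 10 concentrations) and incubated about 24 hours at 37° C, then lysed. pAKT S473 measured by alphaLISA after overnight bead incubation. Signal normalised to alpelisib (3.125 μm) and DMSO controls; IC50 from four-parameter fit.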
Background: In Alpha technology, singlet oxygen from a donor bead excites a nearby acceptor bead.

Test [2] concerns T47D (PI3Kα H1047R mutant) cells. Briefly: Cell viability (CellTiter-Glo 2.0) in T47D cells. To be noted: Homo sapiens, T47D, 72 h, approximately 72 hours. An outline of the steps:
(§1)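 SKBR3 or T47D cells, 1000 per well, were seeded overnight and then exposed ~72 h at 37° C to 10 concentrations of compound, 1:4 dilutions from 10 μm. Viability read by CellTiter-Glo luminescence as percent of vehicle; IC50 from four-parameter variable-slope fit.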
A general note: ATP-based viability assays read luminescence as a measure of living cells.

In test [3] the test system is SKBR3 (PI3Kα wild type) cells. Briefly: Cell viability (CellTiter-Glo 2.0) in SKBR3 cells. To be noted: Homo sapiens, SK-BR-3; SKBR3 (PI3Kα wild type) cells, approximately 72 hours, CellTiter-Glo 2.0; read-out: SKBR3 (WT) Viability IC50. An outline of the steps:
as §1

pIC50: −log10 of the molar value. A value given as a limit tells only on which side of the number the result lay.

By pIC50 is commonly meant −log10 of the IC50, conventionally taken in molar units. As to `COC[C@@H]1CN(c2nc3c([C@@H](C)Nc4ccc(Cl)nc4C(=O)O)cc(C)cc3nc2C#N)CCO1` [Example 236A, 6-chloro-3-(((R)-1-(2-cyano-3-((S)-2-(methoxymethyl)morpholino)-7-methylquinoxalin-5-yl)ethyl)amino)picolinic acid], the values for the negative logarithm of the IC50 (pIC50) in test [1], in test [2] and in test [3] were 9.05, 7.28 and below 5.00, respectively.
On the same counts, the results for `COC[C@H]1CN(c2nc3c([C@@H](C)Nc4ccc(Cl)nc4C(=O)O)cc(C)cc3nc2C#N)CCO1` [Example 236B, 6-chloro-3-(((R)-1-(2-cyano-3-((R)-2-(methoxymethyl)morpholino)-7-methylquinoxalin-5-yl)ethyl)amino)picolinic acid] are 8.44, 6.66 and below 5.00.
For `Cc1cc([C@@H](C)Nc2ccc(Cl)nc2C(=O)O)c2nc(N3C[C@@H](C)OC[C@H]3C)c(C#N)nc2c1` [Example 237A, 6-chloro-3-(((R)-1-(2-cyano-3-((2R,5R)-2,5-dimethylmorpholino)-7-methylquinoxalin-5-yl)ethyl)amino)picolinic acid] the same measures were 8.37, 6.86 and 5.09.
On the same counts, the results for `Cc1cc([C@@H](C)Nc2ccc(Cl)nc2C(=O)O)c2nc(N3C[C@H](C)OC[C@@H]3C)c(C#N)nc2c1` [Example 237B, 6-chloro-3-(((R)-1-(2-cyano-3-((2S,5S)-2,5-dimethylmorpholino)-7-methylquinoxalin-5-yl)ethyl)amino)picolinic acid] are 8.21, 6.82 and 5.42.
`Cc1cc([C@@H](C)Nc2ccc(Cl)nc2C(=O)O)c2nc(N3C[C@H](C)OC[C@H]3C)c(C#N)nc2c1` [Example 238A, 6-chloro-3-(((R)-1-(2-cyano-3-((2S,5R)-2,5-dimethylmorpholino)-7-methylquinoxalin-5-yl)ethyl)amino)picolinic acid]: the results for the negative logarithm of the IC50 (pIC50) in test [1], in test [2] and in test [3] were 7.98, 6.66 and below 5.00, respectively.
On the same counts, the results for `Cc1cc([C@@H](C)Nc2ccc(Cl)nc2C(=O)O)c2nc(N3C[C@@H](C)OC[C@@H]3C)c(C#N)nc2c1` [Example 238B, 6-chloro-3-(((R)-1-(2-cyano-3-((2R,5S)-2,5-dimethylmorpholino)-7-methylquinoxalin-5-yl)ethyl)amino)picolinic acid] are 8.46, 6.93 and below 5.00.
In the case of `Cc1cc([C@@H](C)Nc2ccc(Cl)nc2C(=O)O)c2nc(N3CCC4(COC4)C3)c(C#N)nc2c1` [Example 240, (R)-6-chloro-3-((1-(2-cyano-7-methyl-3-(2-oxa-6-azaspiro[3.4]octan-6-yl)quinoxalin-5-yl)ethyl)amino)picolinic acid], the pIC50 in test [1] is 8.80; in test [2], 7.80; in test [3], 5.10.
For `Cc1cc([C@@H](C)Nc2ccc(Cl)nc2C(=O)O)c2nc(N3CCCOCC3)c(C#N)nc2c1` [Example 242, (R)-6-chloro-3-((1-(2-cyano-7-methyl-3-(1,4-oxazepan-4-yl)quinoxalin-5-yl)ethyl)amino)picolinic acid], the pIC50 in test [1] was 9.55; in test [2] it was 7.46; in test [3], 5.08.
Take `Cc1cc([C@@H](C)Nc2ccc(Cl)nc2C(=O)O)c2nc(N3C[C@@H](F)[C@@H](C)C3)c(C#N)nc2c1` [Example 245, 6-chloro-3-(((R)-1-(2-cyano-3-((3S,4S)-3-fluoro-4-methylpyrrolidin-1-yl)-7-methylquinoxalin-5-yl)ethyl)amino)picolinic acid]: the results for the negative logarithm of the IC50 (pIC50) in test [1], in test [2] and in test [3] were 8.96, 7.20 and 5.26, respectively.
On the same counts, the results for `Cc1cc([C@@H](C)Nc2ccc(Cl)nc2C(=O)O)c2nc(N3C[C@@H](F)C[C@H]3C)c(C#N)nc2c1` [Example 246A, 6-chloro-3-(((R)-1-(2-cyano-3-((2R,4S)-4-fluoro-2-methylpyrrolidin-1-yl)-7-methylquinoxalin-5-yl)ethyl)amino)picolinic acid] are 9.16, 7.46 and below 5.00.
On the same counts, the results for `Cc1cc([C@@H](C)Nc2ccc(Cl)nc2C(=O)O)c2nc(N3C[C@H](F)C[C@@H]3C)c(C#N)nc2c1` [Example 246B, 6-chloro-3-(((R)-1-(2-cyano-3-((2S,4R)-4-fluoro-2-methylpyrrolidin-1-yl)-7-methylquinoxalin-5-yl)ethyl)amino)picolinic acid] are 8.74, 7.21 and 5.31.
On the same counts, the results for `Cc1cc([C@@H](C)Nc2ccc(Cl)nc2C(=O)O)c2nc(N3C[C@H](F)C[C@H]3C)c(C#N)nc2c1` [Example 246C, 6-chloro-3-(((R)-1-(2-cyano-3-((2R,4R)-4-fluoro-2-methylpyrrolidin-1-yl)-7-methylquinoxalin-5-yl)ethyl)amino)picolinic acid] are 9.01, 7.34 and 5.47.
With `Cc1cc([C@@H](C)Nc2ccc(Cl)nc2C(=O)O)c2nc(N3C[C@@H](F)C[C@@H]3C)c(C#N)nc2c1` [Example 246D, 6-chloro-3-(((R)-1-(2-cyano-3-((2S,4S)-4-fluoro-2-methylpyrrolidin-1-yl)-7-methylquinoxalin-5-yl)ethyl)amino)picolinic acid], the pIC50 in test [1] was 8.17; in test [2], 6.80; in test [3], 5.21.
For `Cc1cc([C@@H](C)Nc2ccc(Cl)nc2C(=O)O)c2nc(N3CCC4(CC3)COC4)c(C#N)nc2c1` [Example 249, (R)-6-chloro-3-((1-(2-cyano-7-methyl-3-(2-oxa-7-azaspiro[3.5]nonan-7-yl)quinoxalin-5-yl)ethyl)amino)picolinic acid], the pIC50 in test [1] is 8.77; in test [2] it was 7.80; in test [3], 5.18.
Regarding `Cc1cc([C@@H](C)Nc2ccc(Cl)nc2C(=O)O)c2nc(N3CCC4(CCO4)CC3)c(C#N)nc2c1` [Example 250, (R)-6-chloro-3-((1-(2-cyano-7-methyl-3-(1-oxa-7-azaspiro[3.5]nonan-7-yl)quinoxalin-5-yl)ethyl)amino)picolinic acid], the pIC50 in test [1] is 8.92; in test [2] it was 7.43; in test [3], 5.31.
For `Cc1cc([C@@H](C)Nc2ccc(Cl)nc2C(=O)O)c2nc(N3CC4(CCOC4)C3)c(C#N)nc2c1` [Example 251, (R)-6-chloro-3-((1-(2-cyano-7-methyl-3-(6-oxa-2-azaspiro[3.4]octan-2-yl)quinoxalin-5-yl)ethyl)amino)picolinic acid] the same measures were 8.96, 7.96 and below 5.00.
On the same counts, the results for `Cc1cc([C@@H](C)Nc2ccc(Cl)nc2C(=O)O)c2nc(N3CC4(CCCO4)C3)c(C#N)nc2c1` [Example 252, (R)-6-chloro-3-((1-(2-cyano-7-methyl-3-(5-oxa-2-azaspiro[3.4]octan-2-yl)quinoxalin-5-yl)ethyl)amino)picolinic acidS] are 8.57, 6.92 and 5.28.
